The source of these data is patent US20240294551A1 (AMGEN INC., priority 2022, published 2024).

Counter-ions that a name gives are not always drawn. Like-named read-outs stand apart in the source and are kept apart here.

The conditions of data set [1]: 16-membered ring.
Data set [2] concerns the target GDP-bound KRAS protein (aa 1-169), containing both G12D and C118A amino acid substitutions (Homo sapiens (Human), UniProt P01116, C118A/G12D). Briefly: KRAS G12D Coupled Nucleotide Exchange Assay. The conditions noted are these: read-out: KRAS G12D Coupled Exchange IC50. The class given is biochemical.
Data set [3] relates to Phosphorylation of ERK1/2 in AsPC-1 cells. Description: Phospho-ERK1/2 MSD Assay. The conditions noted are these: read-out: 2 h p-ERK (AsPC-1 cells), IC50. Format: cell-based, human. A digest of the protocol:
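Read-out: MSD electrochemiluminescent detection of phosphorylated ERK1/2 in whole-cell lysates, fitted to a 4-parameter logistic curve for IC50. Prior to lysis, AsPC-1 cells (25,000 per well) received a 2 h compound dose-response at 37 °C.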

Data set [4] deals with His-tagged KRAS G12D protein (Homo sapiens (Human), UniProt P01116, G12D). Briefly: KRAS G12D TR-FRET Assay. The class given is binding. Conditions: read-out: KRAS G12D Binding IC50. A digest of the protocol: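 Each incubation ran at room temperature: enzyme with compound for 30 minutes, peptide for one hour, and detection reagents (0.4 nM europium anti-6×His, 5 nM streptavidin-d2) for one hour more. Protein and peptide stocks were each diluted to 20 nM before addition.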
Chain of His-tagged KRAS G12D protein (P01116 other isoform, or with tags, fused parts or gaps G12D): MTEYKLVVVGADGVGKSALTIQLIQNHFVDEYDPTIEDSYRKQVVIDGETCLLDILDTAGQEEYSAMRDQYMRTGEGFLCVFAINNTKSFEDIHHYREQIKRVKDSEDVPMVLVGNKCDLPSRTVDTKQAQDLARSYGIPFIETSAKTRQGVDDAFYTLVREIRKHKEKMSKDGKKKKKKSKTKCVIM
A general note: In TR-FRET formats the signal depends on donor and acceptor labels being close together.

The subject of another data set is AsPC-1 cells. Description: AsPC-1 CTG Assay (CellTiter-Glo cell viability). Format: cell-based, human. Conditions: AsPC-1, 72 h, first value of the cell, read-out: G12D/C/V Cell Proliferation CTG (72 h) AsPC-1. A digest of the protocol:
(§1)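 IC50 values derive from 4-parameter logistic fits of CellTiter-Glo luminescence, expressed relative to DMSO. Compound dilution series were applied to overnight-seeded AsPC-1 or SW620 cells (RPMI 1640, 10% FBS) for 72 h at 37 °C, 5% CO2.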
(In general: ATP-based viability assays read luminescence as a measure of living cells.)

The conditions of data set [5]: 16-membered ring, 25.0 °C.
A further data set concerns SW620 cells. Description: SW620 CTG Assay (CellTiter-Glo cell viability). Format: cell-based, human. Conditions: SW620, 72 h; third value of the cell; read-out: G12D/C/V Cell Proliferation CTG (72 h) SW620. A digest of the protocol:
as §1

Chain of GDP-bound KRAS protein (aa 1-169), containing both G12D and C118A amino acid substitutions (P01116 other isoform, or with tags, fused parts or gaps G12D/C118A): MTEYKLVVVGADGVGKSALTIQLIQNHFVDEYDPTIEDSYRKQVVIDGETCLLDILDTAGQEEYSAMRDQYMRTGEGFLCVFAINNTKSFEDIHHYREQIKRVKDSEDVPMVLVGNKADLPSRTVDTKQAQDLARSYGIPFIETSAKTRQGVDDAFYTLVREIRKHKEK

The compound `CC(C)(C)OC(=O)n1ncc2c3c(ccc21)OCCCC(=O)O[C@@H]1CCCN(C1)c1nc(OC[C@@]24CCCN2C[C@H](F)C4)nc2c(F)c-3ncc12` showed a ring closure, isolated yield in data set [1] (from CC(C)(C)OC(=O)n1ncc2c(-c3ncc4c(N5CCC[C@@H](OC(=O)CCCBr)C5)nc(OC[C@@]56CCCN5C[C@H](F)C6)nc4c3F)c(O)ccc21, ether bond, K2CO3, DMF, 17.5 mM) of 24%.

As to `Cc1cc2c(cnn2C2CCCCO2)c2c1CCC=CCCC1(O)CCCN(C1)c1nc(OC[C@@]34CCCN3C[C@H](F)C4)nc3c(F)c-2ncc13` (stereo partly shown), the ring closure, isolated yield in data set [1] (from C=CCCc1c(C)cc2c(cnn2C2CCCCO2)c1-c1ncc2c(N3CCCC(O)(CCC=C)C3)nc(OC[C@@]34CCCN3C[C@H](F)C4)nc2c1F, rcm bond, Hoveyda-Grubbs II (20 mol%)/TsOH, DCE, 1.6 mM, 80.0 °C) was 71%.

Regarding `Cc1cc2c(cnn2C2CCCCO2)c2c1CCCn1ncc(n1)C1CCCN(C1)c1nc(OC[C@@]34CCCN3C[C@H](F)C4)nc3c(F)c-2ncc13` (stereo partly shown), the ring closure, isolated yield in data set [1] (from Cc1cc2c(cnn2C2CCCCO2)c(-c2ncc3c(N4CCCC(c5cn[nH]n5)C4)nc(OC[C@@]45CCCN4C[C@H](F)C5)nc3c2F)c1CCCCl, other bond, K2CO3/TBAI, MeCN, 6.9 mM, 85.0 °C) worked out at 31%.

In data set [1] (from C=CCOC[C@@H]1CCCN(c2nc(OC[C@@]34CCCN3C[C@H](F)C4)nc3c(F)c(-c4c(CC=C)c(C)cc5c4cnn5C4CCCCO4)ncc23)C1, rcm bond, Hoveyda-Grubbs II/TsOH, 1,2-dichloroethane, 2.1 mM, 80.0 °C), `Cc1cc2c(cnn2C2CCCCO2)c2c1CC=CCOC[C@@H]1CCCN(C1)c1nc(OC[C@@]34CCCN3C[C@H](F)C4)nc3c(F)c-2ncc13` (mixture of isomers) showed a ring closure, isolated yield of 21%.

In data set [1] (from Oc1nc(OC[C@@]23CCCN2C[C@H](F)C3)nc2c(F)c(-c3c(CCCCOC[C@@H]4CNC[C@H](O)C4)c(Cl)cc4[nH]ncc34)ncc12, snar bond, BroP/DIEA, MeCN/DMSO, 4.7 mM, 25.0 °C), `O[C@@H]1C[C@@H]2COCCCCc3c(Cl)cc4[nH]ncc4c3-c3ncc4c(nc(OC[C@@]56CCCN5C[C@H](F)C6)nc4c3F)N(C1)C2` (mixture of isomers) registered a ring closure, isolated yield of 25%.

`O=C1CCCc2cccc3cc(O)cc(c23)-c2ncc3c(nc(OC[C@@]45CCCN4C[C@H](F)C5)nc3c2F)N2CCC[C@H](C2)N1` [Example 1, (15R)-31-Fluoro-8-(((2R,7aS)-2-fluorotetrahydro-1H-pyrrolo[1,2-a]pyrrol-7a(5H)-yl)methoxy)-27-hydroxy-3,7,9,11,16-pentaazahexacyclo[19.7.1.1˜2,6˜.1˜11,15˜.0˜5,10˜.0˜25,29˜]hentriaconta-1(28),2(31),3,5,7,9,21,23,25(29),26-decaen-17-one bis(2,2,2-trifluoroacetate)]: the IC50 stood at 4 nM in data set [2]; 196 nM in data set [3] (Homo sapiens, ASPC1, 2 h); 5 nM in data set [4]; 1930 nM in the data set with AsPC-1 cells (Homo sapiens, ASPC1, 72 h). In data set [5] (from N[C@@H]1CCCN(c2nc(OC[C@@]34CCCN3C[C@H](F)C4)nc3c(F)c(-c4cc(O)cc5cccc(CCCC(=O)O)c45)ncc23)C1, amide bond, HATU/DIEA, then NH3/MeOH, DMF, 8.9 mM, 1.0 h), this compound registered a ring closure, yield after HPLC of 7%.

Consider `C[C@@]12CCCN(C1)c1nc(OC[C@@]34CCCN3C[C@H](F)C4)nc3c(F)c(ncc13)-c1cccc3c1N(CCCC(=O)N2)CCC3` [Example 13, (15R)-31-Fluoro-8-(((2R,7aS)-2-fluorotetrahydro-1H-pyrrolo[1,2-a]pyrrol-7a(5H)-yl)methoxy)-15-methyl-3,7,9,11,16,21-hexaazahexacyclo[19.7.1.1˜2,6˜.1˜11,15˜.0˜5,10˜.0˜25,29˜]hentriaconta-1(29),2(31),3,5,7,9,25,27-octaen-17-one bis(2,2,2-trifluoroacetate)], for which the IC50 in data set [2] was 342 nM; in data set [4] it was 238 nM. Besides, the ring closure, yield after HPLC in data set [5] (from C[C@@]1(N)CCCN(c2nc(OC[C@@]34CCCN3C[C@H](F)C4)nc3c(F)c(-c4cccc5c4N(CCCC(=O)O)CCC5)ncc23)C1, amide bond, HATU/TEA, DCM/THF/DMA, 0.98 mM) was found to be 33%.

For the compound `Fc1c2ncc3c(nc(OC[C@@]45CCCN4C[C@H](F)C5)nc13)N1CCO[C@@H](COCCCCc3c(Cl)cc4[nH]ncc4c3-2)C1` [Example 135, (17R)-9-Chloro-30-fluoro-24-(((2R,7aS)-2-fluorotetrahydro-1H-pyrrolo[1,2-a]pyrrol-7a(5H)-yl)methoxy)-15,18-dioxa-5,6,21,23,25,29-hexaazahexacyclo[24.3.1.1˜17,21.0˜2,10˜.0˜3,7˜.0˜22,27˜]hentriaconta-1(30),2,4,7,9,22,24,26,28-nonaene trifluoroacetate], the IC50 in the data set with SW620 cells stood at 55.1 nM; in data set [2], 2 nM; in data set [3] (2 h) it was 17 nM; in data set [4] it was 3 nM; in the data set on AsPC-1 cells, 250 nM. In addition, in data set [5] (from Oc1nc(OC[C@@]23CCCN2C[C@H](F)C3)nc2c(F)c(-c3c(CCCCOC[C@H]4CNCCO4)c(Cl)cc4[nH]ncc34)ncc12, snar bond, BroP/DIEA, MeCN/DMSO, 4.7 mM), the ring closure, yield after HPLC is 39%.
